The term EC50 denotes the concentration that produces a half-maximal response. As usually defined, the IC50 is the midpoint of a concentration-inhibition curve. Usually inhibition stands for the percentage by which the read-out fell short of the control.

Results on 33 compounds are retold here after patent publication US9765037B2, “Compositions and methods for treating toxoplasmosis, cryptosporidiosis, and other apicomplexan protozoan related diseases” (University of Washington Through its Center for …, priority 2010, dated 2017).

One series deals with PfCDPK1 (Plasmodium falciparum (isolate 3D7), UniProt P62344). Put plainly: biochemical. The conditions noted are these: for inhibition at 3 µM: read-out: PfCDPK1 (% inhibition @ 3 uM).
In the next series the target is PfCDPK4 (Plasmodium falciparum (isolate 3D7), UniProt Q8IBS5). Put plainly: biochemical. The following applies: for inhibition at 3 µM: read-out: PfCDPK4 (% inhibition @ 3 uM).
Series [1] has as its system human promyelocytic leukemia (HL-60). Put plainly: Growth inhibition of human cell line HL-60.
For series [2], the system named is human lymphocyte (CRL8155). Put plainly: Growth inhibition of human cell line CRL8155.
The target in the next series is CpCDPK1 (Cryptosporidium parvum (strain Iowa II), UniProt A3FQ16). Put plainly: biochemical. It counts as biochemical. The following applies: read-out: IC50 (μM) CpCDPK1.

Like-named read-outs stand apart in the source and are kept apart here.

CpCDPK1, sequence (A3FQ16 1-538): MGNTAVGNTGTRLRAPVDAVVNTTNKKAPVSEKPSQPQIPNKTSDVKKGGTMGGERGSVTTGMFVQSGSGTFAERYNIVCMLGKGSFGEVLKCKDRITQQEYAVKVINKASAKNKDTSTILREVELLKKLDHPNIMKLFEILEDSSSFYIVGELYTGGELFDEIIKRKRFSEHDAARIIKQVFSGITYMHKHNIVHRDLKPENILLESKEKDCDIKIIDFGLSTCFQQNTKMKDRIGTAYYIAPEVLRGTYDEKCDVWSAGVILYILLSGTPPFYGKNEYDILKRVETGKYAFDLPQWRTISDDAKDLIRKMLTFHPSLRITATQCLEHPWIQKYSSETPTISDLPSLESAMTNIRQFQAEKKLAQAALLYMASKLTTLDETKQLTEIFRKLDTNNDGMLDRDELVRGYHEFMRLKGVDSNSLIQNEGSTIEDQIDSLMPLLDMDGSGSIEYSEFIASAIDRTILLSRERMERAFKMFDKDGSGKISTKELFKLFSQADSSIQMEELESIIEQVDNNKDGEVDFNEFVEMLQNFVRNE

Consider `CC(C)n1nc(-c2ccc3cc(OCc4ccc(C(C)(C)C)cc4)ccc3c2)c2c(N)ncnc21` [Compound 54, 3-(6-(4-tert-butylbenzyloxy)naphthalen-2-yl)-1-isopropyl-1H-pyrazolo[3,4-d]pyrimidin-4-amine], for which the EC50 on PfCDPK1 was found to be 47.8 nM; on PfCDPK4, 438 nM.

As for `Nc1ncnc2c1c(-c1ccc3cc(OCc4ccc(Cl)cc4)ccc3c1)nn2CC1CCNCC1` [Compound 39, 3-(6-(4-chlorobenzyloxy)naphthalen-2-yl)-1-(piperidin-4-ylmethyl)-1H-pyrazolo[3,4-d]pyrimidin-4-amine], the EC50 on PfCDPK1 is 21.1 nM; on PfCDPK4, 9.2 nM.

Regarding `N#Cc1cccc(-c2ccc(-c3nn(CC4CCNCC4)c4ncnc(N)c34)cc2)c1` [Compound 74, 4′-(4-amino-1-(piperidin-4-ylmethyl)-1H-pyrazolo[3,4-d]pyrimidin-3-yl)biphenyl-3-carbonitrile], the EC50 came to 347 nM at PfCDPK1 and 1010 nM at PfCDPK4.

On to `COC(=O)Nc1nc2ccc(C(O)c3ccccc3)cc2[nH]1` (stereo not shown) [Compound 82], for which the EC50 at PfCDPK1 and at PfCDPK4 was more than 3000 nM throughout.

For `NCCCCCC(=O)Nc1nc2ccc(C(=O)c3ccccc3)cc2[nH]1` [Compound 105], the “Cell Toxicity HL60, % at 10 μM” value in series [1] is less than 30% at 10 μM. Moreover, the “Cell Toxicity CRL8155, % at 10 μM” value in series [2] is less than 30% at 10 μM.

On to `CC(C)n1nc(-c2ccc3cc(OCc4cccc(Cl)c4)ccc3c2)c2c(N)ncnc21` [Compound 47, 3-(6-(3-chlorobenzyloxy)naphthalen-2-yl)-1-isopropyl-1H-pyrazolo[3,4-d]pyrimidin-4-amine], for which, on CpCDPK1 (Table 8), the IC50 worked out at 0.272 µM. Besides, the EC50 was found to be 1290 nM at PfCDPK1 and 1430 nM at PfCDPK4.

With `Cc1cccc(-c2nn(C(C)C)c3ncnc(N)c23)c1` [Compound 7g, 1-isopropyl-3-m-tolyl-1H-pyrazolo[3,4-d]pyrimidin-4-amine], the IC50 on CpCDPK1 is 0.114 µM. The inhibition at 3 µM at PfCDPK1 amounted to 72%; on PfCDPK4, 64%.

Consider `CC(C)(C)n1nc(-c2ccc(-c3nn(C(C)(C)C)c4ncnc(N)c34)cc2)c2c(N)ncnc21` [Compound 141], for which, at PfCDPK1, the EC50 was found to be 1470 nM and the inhibition at 3 µM is 92%. On PfCDPK4, the midpoint of the response, the EC50, lay at 2030 nM and the inhibition at 3 µM was 55%.

For the compound `O=C(NCCO)Nc1nc2ccc(C(=O)c3ccccc3)cc2[nH]1` [Compound 90], in series [1], the “Cell Toxicity HL60, % at 10 μM” value is recorded as less than 30% at 10 μM. Further, the “Cell Toxicity CRL8155, % at 10 μM” value in series [2] is recorded as less than 30% at 10 μM.

Regarding `COc1ccc(-c2nn(C(C)C)c3ncnc(N)c23)cc1` [Compound 7j, 1-isopropyl-3-(4-methoxyphenyl)-1H-pyrazolo[3,4-d]pyrimidin-4-amine], the IC50 on CpCDPK1 stood at 0.41 µM. The values for the inhibition at 3 µM on PfCDPK1 and on PfCDPK4 were 87% and 30%, respectively.

For `CC(C)n1nc(-c2ccc3cc(OCc4ccc(Cl)cc4)ccc3c2)c2c(N)ncnc21` [Compound 56, 3-(6-(4-chlorobenzyloxy)naphthalen-2-yl)-1-isopropyl-1H-pyrazolo[3,4-d]pyrimidin-4-amine], on CpCDPK1 (Table 8), the IC50 stood at 0.105 µM. Also, the EC50 on PfCDPK1 was 1140 nM; on PfCDPK4, 888 nM.

On to `CC(C)(C)n1nc(-c2ccc3oc(-c4ccccc4)nc3c2)c2c(N)ncnc21` [Compound 131], for which the EC50 at PfCDPK1 is 266 nM; on PfCDPK4, more than 3000 nM.

Turning to `Nc1ncnc2c1c(-c1ccc3nccnc3c1)nn2CC1CCNCC1` [Compound 122], the EC50 at PfCDPK1 is 482 nM; on PfCDPK4 it was more than 3000 nM. Moreover, the “Cell Toxicity HL60, % at 10 μM” value in series [1] is given as less than 30% at 10 μM. Also, in series [1] (30 μM), the “Cell Toxicity HL60, % at 30 μM” value is less than 30% at 30 μM. In addition, the “Cell Toxicity CRL8155, % at 10 μM” value in series [2] is recorded as less than 30% at 10 μM. Also, in series [2] (30 μM), the “Cell Toxicity CRL8155, % at 30 μM” value is on record as less than 30% at 30 μM.

As for `CC(C)COc1ccc2cc(-c3nn(C(C)(C)C)c4ncnc(N)c34)ccc2c1` [Compound 130], the EC50 at PfCDPK1 was 2950 nM; at PfCDPK4, more than 3000 nM.

Take `CC(C)n1nc(-c2ccc3c(ccn3C)c2)c2c(N)ncnc21` [Compound 20, 1-isopropyl-3-(1-methyl-1H-indol-5-yl)-1H-pyrazolo[3,4-d]pyrimidin-4-amine]: the IC50 on CpCDPK1 (Table 8) stood at 0.003 µM. Also, the values for the EC50 at PfCDPK1 and on PfCDPK4 were 309 nM and 231 nM, respectively. The “Cell Toxicity HL60, % at 10 μM” value in series [1] is given as less than 30% at 10 μM. In addition, the “Cell Toxicity CRL8155, % at 10 μM” value in series [2] is recorded as less than 30% at 10 μM.

Take `CN(C)c1ccc2cc(-c3nn(CC4CCNCC4)c4ncnc(N)c34)ccc2n1` [Compound 68, 6-(4-amino-1-(piperidin-4-ylmethyl)-1H-pyrazolo[3,4-d]pyrimidin-3-yl)-N,N-dimethylquinolin-2-amine]: the IC50 at CpCDPK1 (Table 8) is more than 3 µM.

`Nc1ncnc2c1c(-c1ccc(-c3ccccc3)cc1)nn2CC1CCNCC1` [Compound 100]: the figures for the EC50 at PfCDPK1 and at PfCDPK4 were 74.9 nM and 908 nM, respectively.

For `CC(C)n1nc(-c2ccc3cc(OCc4ccc(CC(F)(F)F)c(Cl)c4)ccc3c2)c2c(N)ncnc21` [Compound 51, 3-(6-(3-chloro-4-(2,2,2-trifluorethyl)benzyloxy)naphthalen-2-yl)-1-isopropyl-1H-pyrazolo[3,4-d]pyrimidin-4-amine], the EC50 at PfCDPK1 stood at 1600 nM; at PfCDPK4 it was 260 nM.

For `Cc1ccccc1COc1ccc2cc(-c3nn(C(C)C)c4ncnc(N)c34)ccc2c1` [Compound 49, 1-isopropyl-3-(6-(2-methylbenzyloxy)naphthalen-2-yl)-1H-pyrazolo[3,4-d]pyrimidin-4-amine], the EC50 stood at 688 nM on PfCDPK1 and 2350 nM at PfCDPK4.

As for `CC(C)COc1ccc2cc(-c3nn(C(C)C)c4ncnc(N)c34)ccc2c1` [Compound 43, 3-(6-isobutoxynaphthalen-2-yl)-1-isopropyl-1H-pyrazolo[3,4-d]pyrimidin-4-amine], the EC50 at PfCDPK1 is 278 nM; at PfCDPK4, 1200 nM.

With `Cn1ccc2cc(-c3nn(CC4CCNCC4)c4ncnc(N)c34)ccc21` [Compound 57, 3-(1-methyl-1H-indol-5-yl)-1-(piperidin-4-ylmethyl)-1H-pyrazolo[3,4-d]pyrimidin-4-amine], the figures for the EC50 at PfCDPK1 and at PfCDPK4 were 705 nM and 243 nM, respectively.

With `Nc1ncnc2c1c(I)nn2CC1CCNCC1` [Compound 98], the “Cell Toxicity HL60, % at 10 μM” value in series [1] is on record as less than 30% at 10 μM. Also, the “Cell Toxicity CRL8155, % at 10 μM” value in series [2] is given as less than 30% at 10 μM.

For `COc1ccc(-c2nn(C(C)C)c3ncnc(N)c23)cc1C` [Compound 7m, 1-isopropyl-3-(4-methoxy-3-methylphenyl)-1H-pyrazolo[3,4-d]pyrimidin-4-amine], the IC50 on CpCDPK1 turned out to be 0.017 µM.

In the case of `O=C(CCCC1CCNCC1)Nc1nc2ccc(C(=O)c3ccccc3)cc2[nH]1` [Compound 115], the “Cell Toxicity HL60, % at 10 μM” value in series [1] is less than 30% at 10 μM. The “Cell Toxicity CRL8155, % at 10 μM” value in series [2] is listed as less than 30% at 10 μM.

Take `CC(Oc1ccc2cc(-c3nn(C(C)C)c4ncnc(N)c34)ccc2c1)c1ccccc1` (stereo not shown) [Compound 53, 1-isopropyl-3-(6-(1-phenylethoxy)naphthalen-2-yl)-1H-pyrazolo[3,4-d]pyrimidin-4-amine]: the EC50 is 532 nM on PfCDPK1 and 1640 nM at PfCDPK4.

With `CC(C)n1nc(-c2ccc3cc(OCc4cc(F)cc(Cl)c4)ccc3c2)c2c(N)ncnc21` [Compound 52, 3-(6-(3-chloro-5-fluorobenzyloxy)naphthalen-2-yl)-1-isopropyl-1H-pyrazolo[3,4-d]pyrimidin-4-amine], the values for the EC50 at PfCDPK1 and at PfCDPK4 were 1070 nM and 1230 nM, respectively.

Turning to `CC(C)n1nc(-c2ccc3cc(OCc4ccccc4Cl)ccc3c2)c2c(N)ncnc21` [Compound 46, 3-(6-(2-chlorobenzyloxy)naphthalen-2-yl)-1-isopropyl-1H-pyrazolo[3,4-d]pyrimidin-4-amine], the EC50 at PfCDPK1 is 477 nM; on PfCDPK4 it was more than 3000 nM. In series [1], the “Cell Toxicity HL60, % at 10 μM” value is given as less than 30% at 10 μM. Moreover, the “Cell Toxicity CRL8155, % at 10 μM” value in series [2] was less than 30% at 10 μM.

Regarding `CC(C)n1nc(-c2ccc3cc(OC(=O)c4cccc(Cl)c4)ccc3c2)c2c(N)ncnc21` [Compound 85], the values for the EC50 at PfCDPK1 and on PfCDPK4 were 229 nM and 479 nM, respectively.

As for `Cc1ccc(C(F)(F)F)cc1COc1ccc2cc(-c3nn(C(C)C)c4ncnc(N)c34)ccc2c1` [Compound 50, 1-isopropyl-3-(6-(2-methyl-5-(trifluoromethyl)benzyloxy)naphthalen-2-yl)-1H-pyrazolo[3,4-d]pyrimidin-4-amine], the EC50 at PfCDPK1 is 2090 nM; on PfCDPK4 it was more than 3000 nM.

`Cc1ccc(C)c(COc2ccc3cc(-c4nn(C(C)C)c5ncnc(N)c45)ccc3c2)c1` [Compound 48, 3-(6-(2,5-dimethylbenzyloxy)naphthalen-2-yl)-1-isopropyl-1H-pyrazolo[3,4-d]pyrimidin-4-amine]: the EC50 is 2280 nM on PfCDPK1 and more than 3000 nM at PfCDPK4.

Turning to `CC(C)(C)c1nc(-c2cnc3ccccc3c2)c2c(N)nccn12` [Compound 72, 3-tert-butyl-1-(quinolin-3-yl)imidazo[1,5-a]pyrazin-8-amine], the EC50 at PfCDPK1 is 948 nM; at PfCDPK4, 241 nM. Moreover, the “Cell Toxicity HL60, % at 10 μM” value in series [1] is less than 30% at 10 μM. Moreover, the “Cell Toxicity CRL8155, % at 10 μM” value in series [2] was less than 30% at 10 μM.

Turning to `CC(C)n1nc(-c2ccc3cc(OCc4ccncc4)ccc3c2)c2c(N)ncnc21` [Compound 55, 1-isopropyl-3-(6-(pyridin-4-ylmethoxy)naphthalen-2-yl)-1H-pyrazolo[3,4-d]pyrimidin-4-amine], the EC50 turned out to be 216 nM on PfCDPK1 and 175 nM at PfCDPK4.

As to `Cc1cccc2[nH]c(-c3nn(C(C)C)c4ncnc(N)c34)cc12` [Compound 25, 1-isopropyl-3-(4-methyl-1H-indol-2-yl)-1H-pyrazolo[3,4-d]pyrimidin-4-amine], the EC50 at PfCDPK4 was 579 nM. Also, in series [1], the “Cell Toxicity HL60, % at 10 μM” value is 47% toxicity at. Further, the “Cell Toxicity CRL8155, % at 10 μM” value in series [2] was determined as 38% toxicity at.
